Laboratory results published in patent US20060166892A1, “Treatment of cell proliferative disorders with chlorotoxin” (priority 2002, published 2006).
Read-outs that look alike come from different tables or passages of the source. Ends that are not written are not given here. * marks the point of attachment. Biotin = O=C1N[C@H]2[C@H](CS[C@H]2CCCCC(=O)*)N1

Columns and labels:
[1] = system: PC3 prostate cancer cells; experiment: Binding of biotinylated peptides to PC3 cells, HRP-avidin detection; design: species or system human; conditions: chlorotoxin binding assay, FIG. 11
Method: To identify core binding site sequences of chlorotoxin, twenty-seven overlapping 10-mers derived from SEQ 1) NO: 1 were synthesized, starting from the C-terminus of the peptide as indicated in FIG. 7.
Binding of the 10-mer peptides to PC3 prostate cancer cells in vitro was measured by incubating cultured PC3 cells with individual peptides. Binding was detected and quantified by incubating the peptide exposed cells with HRP-avidin using a commercial kit according to manufacturer's instructions.
(SEQ ID NO: 10) sequentially as depicted in Table 5.
In order to compare binding of the short scorpion toxins, the regions homologous to peptide 21 of small toxin and probable toxin LQH-8/6 were synthesized and biotinylated for analysis in the chlorotoxin binding assay. (See Table 6 for amino acid sequences of the peptides).

[2] = system: D54MG Glioblastoma cells; conditions: 24 h
Method: The purpose of this experiment was to determine if the proliferation D54MG Glioblastoma cells, as measured by ^3H-thymidine uptake, is effected by Peptide 21, a segment of the full chlorotoxin sequence. The sequence of peptide 21 and its relation to chlorotoxin is shown in the sequence below:
D54MG cells were plated in a 24 well plate at 100,000 cells/ml/well using five rows of four wells for each concentration. The cells were allowed to adhere in normal media for twenty-four hours at 37° C. and 5% carbon dioxide. TM-701 was diluted to a […] stock solution and added to each row at the concentrations of 0, 20, 80, 160 and 320 nM.
The cells and peptide 21 were allowed to incubate for 24 hours at 37° C. and 5% carbon dioxide. After twenty-four hours, the cells were rinsed two times with warm PBS. Normal media was added back to the cells at 1 ml/well. One μCi of ^3H-thymidine was added to each well (1 μl of 1 mCi/ml ^3H-thymidine to each well). The plate was incubated for two hours at 37° C. The media and thymidine were removed and the wells were rinsed with ice-cold phosphate-buffered saline three times. To each well was added 1 ml of 0.3 N NaOH. The plate was incubated in the 37° C. incubator for thirty minutes. Each well of 0.3 N NaOH was pipetted up and down three to four times and removed from the plate and the solution was placed in scintillation vials for counting. Scintillation fluid at four times the amount of sample was added to the vials (4 ml). Each vial was counted on the scintillation counter for one minute.

Row | Substance | binding in PC3 human prostate cancer cells [1] | uptake of 3H-thymidine, trend over 20 to 320 nM ([2]; FIG. 12) | 3H-Thymidine uptake ± SD ([2]; peptide 21 at 20 nM) [CPM] | 3H-Thymidine uptake ± SD ([2]; peptide 21 at 80 nM) [CPM] | 3H-Thymidine uptake ± SD ([2]; peptide 21 at 160 nM) [CPM] | 3H-Thymidine uptake ± SD ([2]; peptide 21 at 320 nM) [CPM]
1 | negative peptide (GKCYGPQCLC; Chlorotoxin; listed as Leiurus quinquestriatus) [reference compound] | 110 % of background levels |  |  |  |  | 
2 | Biotin-TTDHQMARKS [peptide 21] | 232.50 % of background levels | decreases in a does-dependent manner | 7795 ± 634 | 7412 ± 630 | 6983 ± 329 | 5782 ± 886
3 | TTDPQMSKK [21ST, region of small toxin homologous to peptide 21, synthesized and biotinylated] | 225.26 % of background levels |  |  |  |  | 
4 | TTDQQMTKK [21LQ, region of probable toxin LQH-8/6 homologous to peptide 21, synthesized and biotinylated] | 242.32 % of background levels |  |  |  |  | 
